According to patent US20220233503A1, “METHODS OF TREATING SEPSIS WITH SYNAPTIC VESICLE 2A AND/OR 2B BINDING CHEMICAL ENTITIES” (INSTITUT PASTEUR, priority 2016, published 2022):

System: microglial cells
Assay: Morphological analysis of microglial cells (Iba-1 staining) after sepsis
Assay type: in vivo, mice
Description: Immunohistochemistry: Mice were perfused through left ventricule with paraformaldehyde 4% and the collected brains with small forceps. Brain were fixed overnight with PFA 4% and then cut in 100 μm sagittal slices with a vibratome VT1200S (Leica, Germany). Ionized calcium binding adaptor type 1 immunohistochemistry. Brain sections were washed with PBS and aspecific binding sites were saturated with a bovine serum albumine 3% in PBS solution for 4 hours. Then primary antibody (Rabbit, Wako, 40 ng/μl) was applied for 24 hours at 4° C. under constant agitation. Cyanine 3 secondary antibody (Donkey anti-Rabbit) and Hoechst 33342 (1/4000) was then applied overnight at 4° C. with constant agitation.
Imaging of samples was realized in a medium throughput spinning disk confocal microscope (CV1000) on 5×5 mozaics reconstructed with an overlap of 50% to avoid signal intensity lowering on the edge of tiles. Stitching was realized using a homemade macro with the Grid/collection plugin for Fiji channel by channel and then manually realligned if necessary. Automated analysis of microglial cell was realized on Iba1 staining. Automatic local contrast thresholding using Phanshalkar algorithm with a radius of 2 μm was performed for microglia channel, and with a radius of 12 μm for nuclei channel. Microglial cells were identified using a fixed empirical threshold for percentage of perinuclear area stained by Iba-1 using thresholded image. Only individual microglial cells obtained after segmentation with a tridimensionnal watershed algorithm were furthered considered for analysis. Morphometric study of microglial cells were performed using mcib3d plugin for FIJI. Concentric envelopes were computed starting 1 μm after nuclear envelope to analyze the number of microglial process crossing this sphere and reproduce a conformational tridimensional analysis on microglial cells.
Individual and summarized data were then analyzed in R statistics. Area under the curve of number of microglial processes. When covariant variables were identified, the most relevant was considered.
FIG. 3 (G, H, I). […]

CC[C@@H](C(N)=O)N1CCCC1=O (single isomer, unassigned) [levetiracetam]
principal components of microglial morphology (4 main components of 107 morphological criteria, septic mice): different | microglial cell morphological changes (6 hours after sepsis, CeA and B1A): decreased | number of microglial cell processes (15 days after sepsis): increased dramatically
